Results on one substance are retold here after patent US20250000952A1, “POLYPEPTIDE BASED ON RECEPTOR-INTERACTING PROTEIN KINASE-3 METHYLATION MODIFICATION AND APPLICATION THEREOF IN CELL NECROPTOSIS-RELATED DISEASES” (Air Force Medical University of the People's Liberation Army, priority 2023, published 2025).

“Also recorded” adds a separate entry of the source.

One assay has as its system Prmt5^iIEC-KO mice. The experiment in a line: Survival (lifetime) analysis of tamoxifen-induced Prmt5 knockout mice. It counts as in vivo, mouse. Particulars: tamoxifen 75 mg/kg, polypeptide 10 mg/kg intraperitoneally once a day until death, ** p<0.01. As for the experimental part:
Tamoxifen-induced mouse intestinal epithelial cell-specific gene knockout mice (Prmt5^iIEC-KO) are used. Tamoxifen is given (75 mg/kg) to mice at age of 8 weeks to induce Prmt5 gene knockout and cell necroptosis (intraperitoneal injection, once a day, for 5 days). Using Prmt5^iIEC-KO, while tamoxifen is injected to induce Prmt5 gene knockout, mice are injected with different types and concentrations of peptides intraperitoneally, and the survival cycle of mice is analyzed, ** p<0.01. Mice are injected intraperitoneally with 10 mg/kg polypeptide once a day until the mice die.

The next assay concerns mouse L929 cells. Description: Membrane penetrating experiment (fluorescence microscopy of FITC-labeled polypeptide). It counts as cell-based. To be noted: 20 μM polypeptide, 24 hours. As for the experimental part:
Under the condition of necroptosis activation, it is observed whether the symmetrical dimethyl modified polypeptide fragment is capable of reducing the necroptosis and protecting cells from death. 20 μM polypeptide is added to mouse L929 cells for 24 hours, and the efficiency of polypeptide entering the target cells is analyzed by fluorescence microscope, with the scale of 275 μm, and the results are shown in FIG. 1A-FIG. 1B.

Another assay relates to mouse fibroblast L929. Description: Necroptosis stimulation experiment, cell morphology after TNF-α + Z-VAD. It counts as cell-based. To be noted: L929, TNF-α (20 ng/mL)+Z-VAD (20 μM), polypeptide 20 μM, compared with TAT-mRIP3. The method, then: The necroptosis induced by TNF-α (20 ng/mL)+Z-VAD (20 μM) is in mouse fibroblast L929, and polypeptide (20 μM) is added to intervene. After 12 hours treatment, the morphological changes of the cell are analyzed: Dimethyl sulfoxide (DMSO) is used as control group); the scale is 20 μm.
After 12 hours, the necroptosis of the cells is stimulated.

The test system of assay [1] is intestinal tissues of Prmt5^iIEC-KO mice. The experiment in a line: HE histological analysis of mouse intestine. It counts as in vivo. To be noted: compared with TAT and unmodified (TAT-mRIP3) polypeptide group.
For the next assay, the system named is pRIP1, pRIP3 and pMLKL. Description: Protein detection of necroptosis marker molecules after TNF-α + Z-VAD. It counts as cell-based, mouse. To be noted: L929, TNF-α (20 ng/ml)+Z-VAD (20 μM), peptide 10 μM, 20 μM and 50 μM, 12 hours. As for the experimental part: Furthermore, the necroptosis reaction in cells is detected. Mouse fibroblast L929 is treated with the classic cell necroptosis inducer TNF-α (20 ng/ml)+Z-VAD (20 μM), and at the same time, the peptides TAT (20 μM), TAT-mRIP3-WT and TAT-mRIP3-SDMA (10, 20 and 50 μM) are added. Cell samples are collected for protein detection after 12 hours.

Turning to “TAT-mRIP3-SDMA: GRKKRRQRRRPQQAQFGRG (SDMA) GWQPFHK; cell-penetrating peptide TAT connected to mouse RIP3 peptide with symmetric di-methylated arginine 479”, in the assay on Prmt5^iIEC-KO mice, the lifetime of mice entry is “significantly prolonged”. The “efficiency of polypeptide entering the target cells (fluorescence intensity)” value in the assay with mouse L929 cells was “capable of entering mouse lung fibroblast L929”. Further, the “protection against necroptosis / cell death (cell morphology)” value in the assay with mouse fibroblast L929 is listed as “reducing cell death; also recorded: obvious protective effect”. For the same substance, the “intestinal tissue necrosis and intestinal cavity structure (HE staining)” value in assay [1] is reported as “significant protective effect”. The “expression levels of pRIP1, pRIP3 and pMLKL” value with pRIP1, pRIP3 and pMLKL is reported as “decreasing the expression levels; also recorded: lower than control group”.
